Measurements: patent US9529005B2, “Modulating bacterial MAM polypeptides in pathogenic disease” (priority 2011, dated 2016)
Like-named read-outs stand apart in the source and are kept apart here.

Legend:
Assay in all cases: Antimicrobial susceptibility testing (MIC), BD Phoenix Automated Microbiology System; as to interpretation of the result: key: R, resistant; I, intermediate; S, susceptible; R*: *As a rule, when ESBL is detected, an interpretation of susceptible or intermediate for penicillins, cephalosporins and aztreonam is reported as resistant
Assay type in all cases: cell-based
Klebsiella ssp. = conditions: for MIC: Klebsiella
From the text: (§1) The inventors performed antimicrobial susceptibility testing (AST) by determining the minimal inhibiting concentration (MIC) of a panel of antimicrobials on all twenty bacterial isolates using the BD Phoenix Automated Microbiology System (Table 3). Antimicrobial panels included several drugs from each of the four most commonly used classes of antimicrobials, aminoglycosides, β-lactams, carbapenems and fluoroquinolones. The panels also included antimicrobials from other classes, such as trimethoprim/sulfamethoxazole, but resistance to these was not considered in the classification of isolates as multidrug-resistant.

Pseudomonas aeruginosa = conditions: for MIC: Pseudomonas aeruginosa
From the text: as §1

Escherichia coli = conditions: for MIC: Escherichia coli
From the text: as §1

Acinetobacter baumannii = conditions: for MIC: Acinetobacter baumannii
From the text: as §1

[1] = Pseudomonas aeruginosa isolate 1
[2] = Pseudomonas aeruginosa isolate 2
[3] = Pseudomonas aeruginosa isolate 3
[4] = Pseudomonas aeruginosa isolate 4
[5] = Pseudomonas aeruginosa isolate 5
[6] = Acinetobacter baumannii isolate 1
[7] = Acinetobacter baumannii isolate 2
[8] = Acinetobacter baumannii isolate 3
[9] = Acinetobacter baumannii isolate 4
[10] = Acinetobacter baumannii isolate 5
[11] = read-out: minimal inhibiting concentration, Klebsiella ssp. isolate 1
[12] = read-out: minimal inhibiting concentration, Klebsiella ssp. isolate 2
[13] = read-out: minimal inhibiting concentration, Klebsiella ssp. isolate 3
[14] = read-out: minimal inhibiting concentration, Klebsiella ssp. isolate 4
[15] = read-out: minimal inhibiting concentration, Klebsiella ssp. isolate 5
[16] = read-out: minimal inhibiting concentration, Pseudomonas aeruginosa isolate 1
[17] = read-out: minimal inhibiting concentration, Pseudomonas aeruginosa isolate 2
[18] = read-out: minimal inhibiting concentration, Pseudomonas aeruginosa isolate 3
[19] = read-out: minimal inhibiting concentration, Pseudomonas aeruginosa isolate 4
[20] = read-out: minimal inhibiting concentration, Pseudomonas aeruginosa isolate 5
[21] = read-out: minimal inhibiting concentration, Escherichia coli isolate 1
[22] = read-out: minimal inhibiting concentration, Escherichia coli isolate 2
[23] = read-out: minimal inhibiting concentration, Escherichia coli isolate 3
[24] = read-out: minimal inhibiting concentration, Escherichia coli isolate 4
[25] = read-out: minimal inhibiting concentration, Escherichia coli isolate 5
[26] = read-out: minimal inhibiting concentration, Acinetobacter baumannii isolate 1
[27] = read-out: minimal inhibiting concentration, Acinetobacter baumannii isolate 2
[28] = read-out: minimal inhibiting concentration, Acinetobacter baumannii isolate 3
[29] = read-out: minimal inhibiting concentration, Acinetobacter baumannii isolate 4
[30] = read-out: minimal inhibiting concentration, Acinetobacter baumannii isolate 5

CC(C)(O/N=C(\C(=O)N[C@@H]1C(=O)N2C(C(=O)[O-])=C(C[n+]3ccccc3)CS[C@H]12)c1csc(N)n1)C(=O)O [Ceft., Ceftazidime]
8 µg/mL: MIC (Pseudomonas aeruginosa; Pseudomonas aeruginosa isolate 2, read-out: minimal inhibiting concentration) | MIC (Acinetobacter baumannii; Acinetobacter baumannii isolate 3, read-out: minimal inhibiting concentration)
> 2 µg/mL: MIC (Klebsiella ssp.; Klebsiella ssp. isolate 2, read-out: minimal inhibiting concentration) | MIC (Klebsiella ssp.; Klebsiella ssp. isolate 3, read-out: minimal inhibiting concentration) | MIC (Klebsiella ssp.; Klebsiella ssp. isolate 4, read-out: minimal inhibiting concentration)
R: interpretation of the result (Klebsiella ssp.; Klebsiella ssp. isolate 1) | interpretation of the result (Klebsiella ssp.; Klebsiella ssp. isolate 5) | interpretation of the result (Pseudomonas aeruginosa; [1]) | interpretation of the result (Pseudomonas aeruginosa; [3]) | interpretation of the result (Pseudomonas aeruginosa; [4]) | interpretation of the result (Pseudomonas aeruginosa; [5]) | interpretation of the result (Escherichia coli; Escherichia coli isolate 1) | interpretation of the result (Escherichia coli; Escherichia coli isolate 2) | interpretation of the result (Escherichia coli; Escherichia coli isolate 3) | interpretation of the result (Escherichia coli; Escherichia coli isolate 4) | interpretation of the result (Acinetobacter baumannii; [6]) | interpretation of the result (Acinetobacter baumannii; [7]) | interpretation of the result (Acinetobacter baumannii; [9]) | interpretation of the result (Acinetobacter baumannii; [10])
4 µg/mL: MIC (Escherichia coli; Escherichia coli isolate 5, read-out: minimal inhibiting concentration)
> 16 µg/mL: MIC (Klebsiella ssp.; Klebsiella ssp. isolate 1, read-out: minimal inhibiting concentration) | MIC (Klebsiella ssp.; Klebsiella ssp. isolate 5, read-out: minimal inhibiting concentration) | MIC (Pseudomonas aeruginosa; Pseudomonas aeruginosa isolate 1, read-out: minimal inhibiting concentration) | MIC (Pseudomonas aeruginosa; Pseudomonas aeruginosa isolate 3, read-out: minimal inhibiting concentration) | MIC (Pseudomonas aeruginosa; Pseudomonas aeruginosa isolate 4, read-out: minimal inhibiting concentration) | MIC (Pseudomonas aeruginosa; Pseudomonas aeruginosa isolate 5, read-out: minimal inhibiting concentration) | MIC (Escherichia coli; Escherichia coli isolate 1, read-out: minimal inhibiting concentration) | MIC (Escherichia coli; Escherichia coli isolate 2, read-out: minimal inhibiting concentration) | MIC (Escherichia coli; Escherichia coli isolate 3, read-out: minimal inhibiting concentration) | MIC (Escherichia coli; Escherichia coli isolate 4, read-out: minimal inhibiting concentration) | MIC (Acinetobacter baumannii; Acinetobacter baumannii isolate 1, read-out: minimal inhibiting concentration) | MIC (Acinetobacter baumannii; Acinetobacter baumannii isolate 2, read-out: minimal inhibiting concentration) | MIC (Acinetobacter baumannii; Acinetobacter baumannii isolate 4, read-out: minimal inhibiting concentration) | MIC (Acinetobacter baumannii; Acinetobacter baumannii isolate 5, read-out: minimal inhibiting concentration)
S: interpretation of the result (Pseudomonas aeruginosa; [2]) | interpretation of the result (Acinetobacter baumannii; [8])

C[C@@H](O)[C@H]1C(=O)N2C(C(=O)O)=C(SCCN=CN)C[C@H]12 [Im., Imipenem]
S: interpretation of the result (Klebsiella ssp.; Klebsiella ssp. isolate 1) | interpretation of the result (Klebsiella ssp.; Klebsiella ssp. isolate 2) | interpretation of the result (Klebsiella ssp.; Klebsiella ssp. isolate 3) | interpretation of the result (Klebsiella ssp.; Klebsiella ssp. isolate 4) | interpretation of the result (Klebsiella ssp.; Klebsiella ssp. isolate 5) | interpretation of the result (Pseudomonas aeruginosa; [5]) | interpretation of the result (Escherichia coli; Escherichia coli isolate 1) | interpretation of the result (Escherichia coli; Escherichia coli isolate 2) | interpretation of the result (Escherichia coli; Escherichia coli isolate 3) | interpretation of the result (Escherichia coli; Escherichia coli isolate 4) | interpretation of the result (Escherichia coli; Escherichia coli isolate 5) | interpretation of the result (Acinetobacter baumannii; [6]) | interpretation of the result (Acinetobacter baumannii; [9])
> 8 µg/mL: MIC (Pseudomonas aeruginosa; [16]) | MIC (Pseudomonas aeruginosa; [17]) | MIC (Pseudomonas aeruginosa; [18]) | MIC (Pseudomonas aeruginosa; [19]) | MIC (Acinetobacter baumannii; [27]) | MIC (Acinetobacter baumannii; [28]) | MIC (Acinetobacter baumannii; [30])
2 µg/mL: MIC (Pseudomonas aeruginosa; [20]) | MIC (Acinetobacter baumannii; [26]) | MIC (Acinetobacter baumannii; [29])
R: interpretation of the result (Pseudomonas aeruginosa; [1]) | interpretation of the result (Pseudomonas aeruginosa; [2]) | interpretation of the result (Pseudomonas aeruginosa; [3]) | interpretation of the result (Pseudomonas aeruginosa; [4]) | interpretation of the result (Acinetobacter baumannii; [7]) | interpretation of the result (Acinetobacter baumannii; [8]) | interpretation of the result (Acinetobacter baumannii; [10])
≤ 1 µg/mL: MIC (Klebsiella ssp.; [11]) | MIC (Klebsiella ssp.; [12]) | MIC (Klebsiella ssp.; [13]) | MIC (Klebsiella ssp.; [14]) | MIC (Klebsiella ssp.; [15]) | MIC (Escherichia coli; [21]) | MIC (Escherichia coli; [22]) | MIC (Escherichia coli; [23]) | MIC (Escherichia coli; [24]) | MIC (Escherichia coli; [25])

C[C@H]1COc2c(N3CCN(C)CC3)c(F)cc3c(=O)c(C(=O)O)cn1c23 [Lev., Levofloxacin]
I: interpretation of the result (Acinetobacter baumannii; [8])
R: interpretation of the result (Klebsiella ssp.; Klebsiella ssp. isolate 1) | interpretation of the result (Pseudomonas aeruginosa; [1]) | interpretation of the result (Pseudomonas aeruginosa; [2]) | interpretation of the result (Pseudomonas aeruginosa; [3]) | interpretation of the result (Pseudomonas aeruginosa; [4]) | interpretation of the result (Pseudomonas aeruginosa; [5]) | interpretation of the result (Escherichia coli; Escherichia coli isolate 1) | interpretation of the result (Escherichia coli; Escherichia coli isolate 2) | interpretation of the result (Escherichia coli; Escherichia coli isolate 3) | interpretation of the result (Escherichia coli; Escherichia coli isolate 4) | interpretation of the result (Escherichia coli; Escherichia coli isolate 5) | interpretation of the result (Acinetobacter baumannii; [6]) | interpretation of the result (Acinetobacter baumannii; [7]) | interpretation of the result (Acinetobacter baumannii; [9]) | interpretation of the result (Acinetobacter baumannii; [10])
S: interpretation of the result (Klebsiella ssp.; Klebsiella ssp. isolate 2) | interpretation of the result (Klebsiella ssp.; Klebsiella ssp. isolate 3) | interpretation of the result (Klebsiella ssp.; Klebsiella ssp. isolate 4) | interpretation of the result (Klebsiella ssp.; Klebsiella ssp. isolate 5)
≤ 1 µg/mL: MIC (Klebsiella ssp.; [12]) | MIC (Klebsiella ssp.; [13]) | MIC (Klebsiella ssp.; [14]) | MIC (Klebsiella ssp.; [15])
> 4 µg/mL: MIC (Klebsiella ssp.; [11]) | MIC (Pseudomonas aeruginosa; [16]) | MIC (Pseudomonas aeruginosa; [17]) | MIC (Pseudomonas aeruginosa; [18]) | MIC (Pseudomonas aeruginosa; [19]) | MIC (Pseudomonas aeruginosa; [20]) | MIC (Escherichia coli; [21]) | MIC (Escherichia coli; [22]) | MIC (Escherichia coli; [23]) | MIC (Escherichia coli; [24]) | MIC (Escherichia coli; [25]) | MIC (Acinetobacter baumannii; [26]) | MIC (Acinetobacter baumannii; [27]) | MIC (Acinetobacter baumannii; [29]) | MIC (Acinetobacter baumannii; [30])
4 µg/mL: MIC (Acinetobacter baumannii; [28])

C[C@@H](O)[C@H]1C(=O)N2C(C(=O)O)=C(S[C@@H]3CN[C@H](C(=O)N(C)C)C3)[C@H](C)[C@H]12 [Mero., Meropenem]
≤ 1 µg/mL: MIC (Klebsiella ssp.; [11]) | MIC (Klebsiella ssp.; [12]) | MIC (Klebsiella ssp.; [13]) | MIC (Klebsiella ssp.; [14]) | MIC (Klebsiella ssp.; [15]) | MIC (Escherichia coli; [21]) | MIC (Escherichia coli; [22]) | MIC (Escherichia coli; [23]) | MIC (Escherichia coli; [24]) | MIC (Escherichia coli; [25]) | MIC (Acinetobacter baumannii; [29])
> 8 µg/mL: MIC (Pseudomonas aeruginosa; [17]) | MIC (Pseudomonas aeruginosa; [18]) | MIC (Pseudomonas aeruginosa; [19]) | MIC (Acinetobacter baumannii; [27]) | MIC (Acinetobacter baumannii; [28]) | MIC (Acinetobacter baumannii; [30])
susceptible: susceptibility of isolates (Klebsiella ssp.; all Klebsiella ssp. isolates) | susceptibility of isolates (Escherichia coli; all E. coli isolates)
2 µg/mL: MIC (Acinetobacter baumannii; [26])
4 µg/mL: MIC (Pseudomonas aeruginosa; [16]) | MIC (Pseudomonas aeruginosa; [20])
S: interpretation of the result (Klebsiella ssp.; Klebsiella ssp. isolate 1) | interpretation of the result (Klebsiella ssp.; Klebsiella ssp. isolate 2) | interpretation of the result (Klebsiella ssp.; Klebsiella ssp. isolate 3) | interpretation of the result (Klebsiella ssp.; Klebsiella ssp. isolate 4) | interpretation of the result (Klebsiella ssp.; Klebsiella ssp. isolate 5) | interpretation of the result (Pseudomonas aeruginosa; [1]) | interpretation of the result (Pseudomonas aeruginosa; [5]) | interpretation of the result (Escherichia coli; Escherichia coli isolate 1) | interpretation of the result (Escherichia coli; Escherichia coli isolate 2) | interpretation of the result (Escherichia coli; Escherichia coli isolate 3) | interpretation of the result (Escherichia coli; Escherichia coli isolate 4) | interpretation of the result (Escherichia coli; Escherichia coli isolate 5) | interpretation of the result (Acinetobacter baumannii; [6]) | interpretation of the result (Acinetobacter baumannii; [9])
R: interpretation of the result (Pseudomonas aeruginosa; [2]) | interpretation of the result (Pseudomonas aeruginosa; [3]) | interpretation of the result (Pseudomonas aeruginosa; [4]) | interpretation of the result (Acinetobacter baumannii; [7]) | interpretation of the result (Acinetobacter baumannii; [8]) | interpretation of the result (Acinetobacter baumannii; [10])

O=C1CN(/N=C/c2ccc([N+](=O)[O-])o2)C(=O)N1 [Nf., Nitrofurantoin]
R: interpretation of the result (Klebsiella ssp.; Klebsiella ssp. isolate 1) | interpretation of the result (Klebsiella ssp.; Klebsiella ssp. isolate 2) | interpretation of the result (Klebsiella ssp.; Klebsiella ssp. isolate 3) | interpretation of the result (Klebsiella ssp.; Klebsiella ssp. isolate 4) | interpretation of the result (Klebsiella ssp.; Klebsiella ssp. isolate 5) | interpretation of the result (Pseudomonas aeruginosa; [1]) | interpretation of the result (Pseudomonas aeruginosa; [2]) | interpretation of the result (Pseudomonas aeruginosa; [3]) | interpretation of the result (Pseudomonas aeruginosa; [4]) | interpretation of the result (Pseudomonas aeruginosa; [5]) | interpretation of the result (Acinetobacter baumannii; [6]) | interpretation of the result (Acinetobacter baumannii; [7]) | interpretation of the result (Acinetobacter baumannii; [8]) | interpretation of the result (Acinetobacter baumannii; [9]) | interpretation of the result (Acinetobacter baumannii; [10])
32 µg/mL: MIC (Escherichia coli; [21])
S: interpretation of the result (Escherichia coli; Escherichia coli isolate 1) | interpretation of the result (Escherichia coli; Escherichia coli isolate 2) | interpretation of the result (Escherichia coli; Escherichia coli isolate 3) | interpretation of the result (Escherichia coli; Escherichia coli isolate 4) | interpretation of the result (Escherichia coli; Escherichia coli isolate 5)
> 64 µg/mL: MIC (Klebsiella ssp.; [11]) | MIC (Klebsiella ssp.; [12]) | MIC (Klebsiella ssp.; [13]) | MIC (Klebsiella ssp.; [14]) | MIC (Klebsiella ssp.; [15]) | MIC (Pseudomonas aeruginosa; [16]) | MIC (Pseudomonas aeruginosa; [17]) | MIC (Pseudomonas aeruginosa; [18]) | MIC (Pseudomonas aeruginosa; [19]) | MIC (Pseudomonas aeruginosa; [20]) | MIC (Acinetobacter baumannii; [26]) | MIC (Acinetobacter baumannii; [27]) | MIC (Acinetobacter baumannii; [28]) | MIC (Acinetobacter baumannii; [29]) | MIC (Acinetobacter baumannii; [30])
≤ 16 µg/mL: MIC (Escherichia coli; [22]) | MIC (Escherichia coli; [23]) | MIC (Escherichia coli; [24]) | MIC (Escherichia coli; [25])
